Structures are written as SMILES. Activity calls are given as the source filed them. How the calls were made is not given here.

This data set concerns CCRIS mutagenicity, Ames/micronucleus/aberration tests. As to the kind of experiment: CCRIS mutagenicity studies.
Setting [1] is: Test System: AMES SALMONELLA TYPHIMURIUM, Strain/Indicator: TA98, Metabolic Activation: NONE, Method: STANDARD PLATE.
Where [2] appears, read: Test System: AMES SALMONELLA TYPHIMURIUM, Strain/Indicator: TA100, Metabolic Activation: NONE, Method: STANDARD PLATE.
[3] abbreviates: Test System: AMES SALMONELLA TYPHIMURIUM, Strain/Indicator: TA100, Metabolic Activation: RAT, LIVER, S-9, AROCLOR 1254, Method: STANDARD PLATE.
The mark [4] stands for this setting: Test System: AMES SALMONELLA TYPHIMURIUM, Strain/Indicator: TA98, Metabolic Activation: NONE, Method: PREINCUBATION
Where [5] appears, read: Test System: AMES SALMONELLA TYPHIMURIUM, Strain/Indicator: TA100, Metabolic Activation: NONE, Method: PREINCUBATION

On to `CC(=O)c1oc([N+](=O)[O-])c(Cl)c1Cl`, for which the mutagenic call is, setting by setting: under setting [1], “active; positive”; (Test System: AMES SALMONELLA TYPHIMURIUM, Strain/Indicator: TA100 (NR), Metabolic Activation: NONE, Method: STANDARD PLATE) “active; positive”; under setting [2], “active; positive”; (Test System: AMES SALMONELLA TYPHIMURIUM, Strain/Indicator: TA100, Metabolic Activation: NONE, Method: STANDARD PLATE (ANAEROBIC INCUBATION)) “active; positive”.

On to `CC(=O)CC1CCC(=O)CCC(=O)OC(CC(C)=O)CCC(O)CCC(=O)O1` (centres undefined), for which, under “Test System: CHINESE HAMSTER V-79, Strain/Indicator: V-79 (HPRT)/6-THIOGUANINE, Metabolic Activation: NONE”, the mutagenic call was “inactive; negative”.

As to `Nc1nc(N)nc(-c2ccc([N+](=O)[O-])o2)n1`, the mutagenic call (Test System: AMES SALMONELLA TYPHIMURIUM, Strain/Indicator: TA100, Metabolic Activation: RAT, LIVER, S-9, KC500 OR PHENOBARBITAL, Method: LIQUID SUSPENSION) is “active; positive”.

`Cc1cc(C)c(CN2C3c4ccccc4-c4ccccc4C32)c(C)c1` (centres undefined): under setting [2], the mutagenic call was “active; positive”.

In the case of `CCOc1cc2c(c3ccc4ccccc4c13)CCC2=O`, the mutagenic call under setting [3] was “inactive; negative”.

As for `CCCCCCCCCCSCn1cc[n+](C)c1`, the mutagenic call runs as follows: under setting [1], “inactive; negative”; (Test System: AMES SALMONELLA TYPHIMURIUM, Strain/Indicator: TA98, Metabolic Activation: RAT, LIVER, S-9, AROCLOR 1254, Method: STANDARD PLATE) “inactive; negative”; under setting [2], “inactive; negative”; under setting [3], “active; positive”; (Test System: AMES SALMONELLA TYPHIMURIUM, Strain/Indicator: TA1535, Metabolic Activation: NONE, Method: STANDARD PLATE) “inactive; negative”; (Test System: AMES SALMONELLA TYPHIMURIUM, Strain/Indicator: TA1535, Metabolic Activation: RAT, LIVER, S-9, AROCLOR 1254, Method: STANDARD PLATE) “active; positive”. Besides, the mutagenic call was “inactive; negative” (Test System: AMES SALMONELLA TYPHIMURIUM, Strain/Indicator: TA1537, Metabolic Activation: NONE, Method: STANDARD PLATE); “inactive; negative” (Test System: AMES SALMONELLA TYPHIMURIUM, Strain/Indicator: TA1537, Metabolic Activation: RAT, LIVER, S-9, AROCLOR 1254, Method: STANDARD PLATE); “inactive; negative” (Test System: AMES SALMONELLA TYPHIMURIUM, Strain/Indicator: TA1538, Metabolic Activation: NONE, Method: STANDARD PLATE); “inactive; negative” (Test System: AMES SALMONELLA TYPHIMURIUM, Strain/Indicator: TA1538, Metabolic Activation: RAT, LIVER, S-9, AROCLOR 1254, Method: STANDARD PLATE).

For the molecule `O=C(O)C(Cl)=C(C(Cl)Cl)C(Cl)Cl`, the mutagenic call was “active; positive” under setting [4]; “active; positive” under setting [5]; “active; positive” under setting [2]; “active; positive” (Test System: AMES SALMONELLA TYPHIMURIUM, Strain/Indicator: TA104, Metabolic Activation: NONE, Method: PREINCUBATION).

For `CN(C)C(=O)Nc1cccc(C(F)(F)F)c1`, the mutagenic call is “inactive; negative” (End Point: IN VITRO CHROMOSOMAL ABERRATIONS, Test System: CHO-LB CELLS, Metabolic Activation: NONE); “inactive; negative” (End Point: IN VITRO CHROMOSOMAL ABERRATIONS, Test System: CHO-LB CELLS, Metabolic Activation: RAT, LIVER, S-9, AROCLOR 1254); “inactive; negative” (Test System: AMES SALMONELLA TYPHIMURIUM, Strain/Indicator: TA97, Metabolic Activation: HAMSTER, LIVER, S-9, AROCLOR 1254 (10 OR 30%), Method: PREINCUBATION); “inactive; negative” (Test System: AMES SALMONELLA TYPHIMURIUM, Strain/Indicator: TA97, Metabolic Activation: NONE, Method: PREINCUBATION); “inactive; negative” (Test System: AMES SALMONELLA TYPHIMURIUM, Strain/Indicator: TA97, Metabolic Activation: RAT, LIVER, S-9, AROCLOR 1254 (10 OR 30%), Method: PREINCUBATION); “inactive; negative” (Test System: AMES SALMONELLA TYPHIMURIUM, Strain/Indicator: TA98, Metabolic Activation: HAMSTER, LIVER, S-9, AROCLOR 1254 (10 OR 30%), Method: PREINCUBATION). Moreover, the mutagenic call under setting [4] was “inactive; negative”; the mutagenic call (Test System: AMES SALMONELLA TYPHIMURIUM, Strain/Indicator: TA98, Metabolic Activation: RAT, LIVER, S-9, AROCLOR 1254 (10 OR 30%), Method: PREINCUBATION) was “inactive; negative”; the mutagenic call (Test System: AMES SALMONELLA TYPHIMURIUM, Strain/Indicator: TA100, Metabolic Activation: HAMSTER, LIVER, S-9, AROCLOR 1254 (10 OR 30%), Method: PREINCUBATION) is “inactive; negative”; the mutagenic call under setting [5] was “inactive; negative”; the mutagenic call (Test System: AMES SALMONELLA TYPHIMURIUM, Strain/Indicator: TA100, Metabolic Activation: RAT, LIVER, S-9, AROCLOR 1254 (10 OR 30%), Method: PREINCUBATION) was “inactive; negative”; the mutagenic call (Test System: AMES SALMONELLA TYPHIMURIUM, Strain/Indicator: TA1535, Metabolic Activation: HAMSTER, LIVER, S-9, AROCLOR 1254 (10 OR 30%), Method: PREINCUBATION) was “inactive; negative”. Moreover, the mutagenic call (Test System: AMES SALMONELLA TYPHIMURIUM, Strain/Indicator: TA1535, Metabolic Activation: NONE, Method: PREINCUBATION) was “inactive; negative”; the mutagenic call (Test System: AMES SALMONELLA TYPHIMURIUM, Strain/Indicator: TA1535, Metabolic Activation: RAT, LIVER, S-9, AROCLOR 1254 (10 OR 30%), Method: PREINCUBATION) was “inactive; negative”; the mutagenic call (Test System: AMES SALMONELLA TYPHIMURIUM, Strain/Indicator: TA1535, Metabolic Activation: RAT, LIVER, S-9, Method: STANDARD PLATE) was “active; positive”; the mutagenic call (Test System: E. COLI, Strain/Indicator: WP2 UVRA, Metabolic Activation: HAMSTER, LIVER, S-9, AROCLOR 1254, Method: STANDARD PLATE) is “inactive; negative”; the mutagenic call (Test System: E. COLI, Strain/Indicator: WP2 UVRA, Metabolic Activation: HAMSTER, LIVER, S-9, Method: STANDARD PLATE) was “inactive; negative”; the mutagenic call (Test System: E. COLI, Strain/Indicator: WP2 UVRA, Metabolic Activation: MOUSE, LIVER, S-9, AROCLOR 1254, Method: STANDARD PLATE) is “inactive; negative”. The mutagenic call by setting is: (Test System: E. COLI, Strain/Indicator: WP2 UVRA, Metabolic Activation: MOUSE, LIVER, S-9, Method: STANDARD PLATE) “inactive; negative”; (Test System: E. COLI, Strain/Indicator: WP2 UVRA, Metabolic Activation: NONE, Method: STANDARD PLATE) “inactive; negative”; (Test System: E. COLI, Strain/Indicator: WP2 UVRA, Metabolic Activation: RAT, LIVER, S-9, AROCLOR 1254, Method: STANDARD PLATE) “inactive; negative”; (Test System: E. COLI, Strain/Indicator: WP2 UVRA, Metabolic Activation: RAT, LIVER, S-9, Method: STANDARD PLATE) “inactive; negative”.

For the origin of these results see PubChem BioAssay AID1259407 (Chemical Carcinogenesis Research Information System (CCRIS), 2018).
